Calls of active or inactive are those of the source.
What was measured:
[1] = target: T1, Corticotropin-releasing factor receptor 2/Corticotropin-releasing factor-binding protein (Homo sapiens, UniProt P24387+Q13324); experiment: activators of CRF receptor 2 with binding protein – uHTS hits, confirmation (AID 602473); assay type: functional; details: read-out: EC50_Mean
T1 sequence (Q13324 whole entry): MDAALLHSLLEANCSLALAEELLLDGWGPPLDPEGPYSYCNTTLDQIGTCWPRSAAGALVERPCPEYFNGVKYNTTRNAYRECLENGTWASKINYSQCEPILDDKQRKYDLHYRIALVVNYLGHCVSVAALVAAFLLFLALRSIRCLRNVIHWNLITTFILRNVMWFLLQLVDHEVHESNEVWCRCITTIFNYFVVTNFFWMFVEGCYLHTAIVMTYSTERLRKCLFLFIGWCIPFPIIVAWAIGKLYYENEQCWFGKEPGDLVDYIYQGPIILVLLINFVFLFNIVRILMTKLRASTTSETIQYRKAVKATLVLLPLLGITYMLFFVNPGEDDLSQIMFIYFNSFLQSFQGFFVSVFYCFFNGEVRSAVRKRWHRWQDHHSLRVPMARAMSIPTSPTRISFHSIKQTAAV
T1 sequence (P24387 whole entry): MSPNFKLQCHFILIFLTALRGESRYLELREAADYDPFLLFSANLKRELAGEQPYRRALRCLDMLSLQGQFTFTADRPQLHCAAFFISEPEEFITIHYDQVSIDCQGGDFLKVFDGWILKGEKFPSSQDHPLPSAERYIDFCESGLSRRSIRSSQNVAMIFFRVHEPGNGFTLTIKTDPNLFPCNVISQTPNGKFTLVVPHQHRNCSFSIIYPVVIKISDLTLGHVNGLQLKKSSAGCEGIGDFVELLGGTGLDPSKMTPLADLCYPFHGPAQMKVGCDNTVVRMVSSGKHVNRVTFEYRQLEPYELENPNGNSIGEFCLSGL

INS1 = experiment: INS-1E survival protection against cytokine death – cell-based, luminescence, retest, dose response (AID 449756); assay type: functional; details: Rattus norvegicus;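 also: cell death triggered by IL-1 beta plus TNF-alpha plus IFN-gamma mixture; protective hits raise ATP signal compared with cytokine alone wells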
[2] = target: T2, Sentrin-specific protease 8 (Homo sapiens, UniProt Q96LD8); assay type: functional
T2 sequence (Q96LD8 whole entry): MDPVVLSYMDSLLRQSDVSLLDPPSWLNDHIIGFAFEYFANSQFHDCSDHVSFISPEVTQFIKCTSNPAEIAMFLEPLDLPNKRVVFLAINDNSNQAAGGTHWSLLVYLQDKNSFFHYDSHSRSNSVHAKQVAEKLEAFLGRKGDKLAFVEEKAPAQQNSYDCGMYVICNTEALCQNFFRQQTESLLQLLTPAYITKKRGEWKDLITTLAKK

[3] = target: T2, Sentrin-specific protease 8; assay type: functional; remark: listed apart in the source
[4] = target: Mitochondrial peptide methionine sulfoxide reductase (Bos taurus, UniProt P54149); experiment: Absorbance-based biochemical high throughput dose response assay for activators of Methionine sulfoxide reductase A (MsrA).; assay type: functional
[5] = Fluorescence-based cell-based high throughput dose response assay for inhibitors of the interaction of nucleotide-binding oligomerization domain containing 2 (NOD2) and the receptor-interacting serine-threonine kinase 2 (RIPK2).; assay type: functional; details: Homo sapiens
[6] = target: Tyrosyl-DNA phosphodiesterase 2 (Homo sapiens, UniProt O95551); experiment: potency against TDP2 phosphodiesterase activity – biochemical, epi absorbance, IC50, dose response (AID 743297)
Beta Lactamase = Beta Lactamase (Pseudomonas aeruginosa, UniProt Q932Y6); experiment: BLA reporter interference, concentration series – BLA reporter cells, FRET fluorescence, artefact control for NOD2-RIPK2 interaction inhibitor project, dose response (AID 651552); assay type: functional, cell-based
[7] = target: Hepatocyte nuclear factor 4-alpha (Homo sapiens, UniProt P41235); assay type: functional, cell-based;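 also: biochemical luminescence-based dose-response counterscreen measuring inhibition of HNF4 dimerization, run alongside a screen for blockers of ABHD5–perilipin-5 interaction; split luciferase complementation of HNF4 fusion proteins in cell lysate measuring dimerization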
[8] = reduction of Shn3 3'UTR-driven luciferase in osteoblasts – cell-based, Clone20 osteoblasts, firefly luciferase, cherry-picked, dose response (AID 624132); assay type: functional;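 also: firefly luciferase luminescence from reporter carrying the Shn3 3'UTR in osteoblasts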
Melanocortin receptor 4 [9] = target: T3, Melanocortin receptor 4 (Homo sapiens, UniProt P32245); experiment: inhibitors of MC4R cAMP signaling – cell-based, TR-FRET, biased antagonists, dose response (AID 602298); assay type: functional;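 also: antagonist potency against agonist-stimulated cAMP production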
[10] = cAMP pathway inhibition in counterscreen cell line – TR-FRET cAMP detection, counter-screen for MC4R biased antagonist project, dose response (AID 602305); assay type: functional, cell-based;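 also: U2OS cells stimulated with forskolin near its EC80 as the cAMP inducer; potency is for inhibition of forskolin-stimulated cAMP signaling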
Melanocortin receptor 4 [11] = target: T3, Melanocortin receptor 4; assay type: functional, cell-based
[12] = loss of viability in HepG2 cells – cell-based, CellTiter-Glo, cherry-picked, cytotoxicity control for Shn3 inhibitor project, dose response (AID 624134); assay type: functional
[13] = non-specific 3'UTR reporter inhibition in Clone20-Shn3RL – cell-based, Renilla luciferase, cherry-picked, counter-screen for Shn3 inhibitor project, dose response (AID 624133); assay type: functional
[14] = activation of miR-122 Renilla sensor silencing – cell-based, Huh7 psiCHECK-miR122, Renilla luciferase, cherry-picked, dose response (AID 651956); assay type: functional;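 also: huh7 hepatoma cells stably carrying a psiCHECK-2 miR-122 sensor plasmid; renilla luciferase signal reporting endogenous miR-122 activity after 48 h compound exposure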
[15] = NIH3T3 cell viability loss – ATP luminescence, mouse fibroblasts, counter-screen, dose response (AID 2010); assay type: functional, cell-based;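 also: cells exposed to compound for about 90 hours before reading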
[16] = target: DNA repair and recombination protein RAD54-like (Homo sapiens, UniProt Q92698); experiment: RAD54 Holliday junction migration blockers – biochemical, fluorescence, cherry-picked samples, dose series, confirmation (AID 651657); assay type: functional
[17] = Luminescence Cell-Based Dose Response HTS to Identify Activators of Luciferase Translation or Activity in H4 […] Cells. [Related pubchem assays: 1829 (Project Summary), 1814 (Primary HTS)]; assay type: functional
[18] = target: T4, DNA repair protein RAD52 homolog (Homo sapiens, UniProt P43351); assay type: functional, biochemical
T4 sequence (P43351 whole entry): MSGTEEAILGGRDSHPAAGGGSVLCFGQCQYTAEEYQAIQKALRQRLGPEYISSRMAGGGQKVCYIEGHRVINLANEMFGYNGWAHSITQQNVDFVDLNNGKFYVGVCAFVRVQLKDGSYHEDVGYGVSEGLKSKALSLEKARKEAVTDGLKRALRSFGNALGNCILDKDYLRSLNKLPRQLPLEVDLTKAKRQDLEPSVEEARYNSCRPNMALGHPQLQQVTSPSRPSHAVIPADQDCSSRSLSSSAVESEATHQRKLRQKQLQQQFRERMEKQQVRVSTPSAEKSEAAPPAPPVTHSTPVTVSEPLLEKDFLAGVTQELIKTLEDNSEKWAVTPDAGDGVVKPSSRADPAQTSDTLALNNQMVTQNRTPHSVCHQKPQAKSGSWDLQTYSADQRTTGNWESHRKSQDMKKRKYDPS

cells [19] = assay type: functional, cell-based
[20] = DRD fibroblast viability loss – cell-based, non-viral oncogenic, luminescence, dose response (AID 1934); assay type: functional; details: Homo sapiens
[21] = Luminescence Cell-Based Dose Confirmation HTS to Identify Activators of 5'UTR Stem-Loop Driven Alpha-Synuclein mRNA Translation in H4 Neuroglioblastoma Cells. [Related pubchem assays: 1829 (Project Summary), 1814 (Primary HTS)]; assay type: functional
[22] = Trypanosoma cruzi growth suppression in host cells – NIH3T3 host cells, beta-gal luminescence, confirmation (AID 2044); assay type: functional, cell-based;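 also: intracellular parasites grown in NIH/3T3 mouse fibroblasts as host cells; luminescent beta-galactosidase reporter signal from transgenic T. cruzi replicating inside host cells; inhibitors lower the luminescence signal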
BJ [23] = experiment: BJ-TERT fibroblast viability loss – cell-based, RAS-independent, luminescence, dose response (AID 1933); assay type: functional; details: Homo sapiens
cells [24] = assay type: functional, cell-based; remark: listed apart in the source
[25] = cytotoxicity toward MDA-MB-231 breast cancer cells – cell-based, CellTiter-Glo luminescence, cherry-pick, cytotoxicity control for RAD54 inhibitor project, dose response (AID 651692); assay type: functional
BJ [26] = experiment: cells; assay type: functional, cell-based; details: Homo sapiens
BJ [27] = experiment: BJ-TERT-LT-ST fibroblast viability loss – cell-based, RAS-independent, luminescence, dose response (AID 1935); assay type: functional; details: Homo sapiens;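 also: BJ fibroblasts immortalized with TERT plus LT and ST oncogenes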
H4 = experiment: Luminescence Cell-Based Dose Response HTS to Identify Activators of 5'UTR Stem-Loop Driven Prion Protein mRNA Translation in H4 Neuroglioblastoma Cells. [Related pubchem assays: 1829 (Project Summary), 1814 (Primary HTS)]; assay type: functional; details: Homo sapiens

T3 sequence (P32245 whole entry): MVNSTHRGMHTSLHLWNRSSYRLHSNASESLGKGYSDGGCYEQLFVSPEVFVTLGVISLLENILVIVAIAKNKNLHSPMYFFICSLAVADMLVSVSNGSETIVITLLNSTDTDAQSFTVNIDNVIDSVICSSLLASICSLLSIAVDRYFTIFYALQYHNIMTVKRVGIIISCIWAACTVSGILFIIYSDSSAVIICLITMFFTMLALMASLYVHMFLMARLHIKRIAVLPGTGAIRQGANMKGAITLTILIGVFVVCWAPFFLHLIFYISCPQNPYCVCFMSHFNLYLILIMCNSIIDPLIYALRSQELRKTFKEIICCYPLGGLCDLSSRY
Chain of Hepatocyte nuclear factor 4-alpha (P41235 whole entry, the tested form may be a part): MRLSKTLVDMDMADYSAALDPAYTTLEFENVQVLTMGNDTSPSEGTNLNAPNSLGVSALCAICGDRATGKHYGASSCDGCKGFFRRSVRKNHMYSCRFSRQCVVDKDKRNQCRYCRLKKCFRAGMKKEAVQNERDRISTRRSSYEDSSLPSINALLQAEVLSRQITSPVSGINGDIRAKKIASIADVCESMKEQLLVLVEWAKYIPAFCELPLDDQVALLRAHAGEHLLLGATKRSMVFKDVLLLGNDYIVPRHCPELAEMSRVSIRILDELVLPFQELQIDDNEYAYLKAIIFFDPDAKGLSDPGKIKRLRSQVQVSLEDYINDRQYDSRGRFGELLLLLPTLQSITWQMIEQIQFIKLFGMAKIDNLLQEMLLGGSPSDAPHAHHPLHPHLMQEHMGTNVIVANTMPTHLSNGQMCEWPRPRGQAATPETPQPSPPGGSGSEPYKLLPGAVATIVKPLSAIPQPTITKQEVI
Chain of Beta Lactamase (Q932Y6 whole entry, the tested form may be a part): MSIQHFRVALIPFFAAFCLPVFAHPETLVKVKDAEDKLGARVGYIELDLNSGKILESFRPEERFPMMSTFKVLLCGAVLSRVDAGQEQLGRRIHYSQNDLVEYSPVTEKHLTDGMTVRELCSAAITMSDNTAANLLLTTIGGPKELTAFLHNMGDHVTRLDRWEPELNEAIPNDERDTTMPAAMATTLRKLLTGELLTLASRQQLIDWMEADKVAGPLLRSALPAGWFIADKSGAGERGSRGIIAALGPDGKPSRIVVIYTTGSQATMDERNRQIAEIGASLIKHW
Chain of Mitochondrial peptide methionine sulfoxide reductase (P54149 whole entry, the tested form may be a part): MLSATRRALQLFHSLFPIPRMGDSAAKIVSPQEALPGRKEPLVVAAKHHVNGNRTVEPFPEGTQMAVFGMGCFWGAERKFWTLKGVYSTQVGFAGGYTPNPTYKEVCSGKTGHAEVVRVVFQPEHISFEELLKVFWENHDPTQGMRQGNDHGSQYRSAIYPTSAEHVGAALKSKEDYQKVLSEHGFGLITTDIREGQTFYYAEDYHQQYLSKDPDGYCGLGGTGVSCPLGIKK
Chain of DNA repair and recombination protein RAD54-like (Q92698 whole entry): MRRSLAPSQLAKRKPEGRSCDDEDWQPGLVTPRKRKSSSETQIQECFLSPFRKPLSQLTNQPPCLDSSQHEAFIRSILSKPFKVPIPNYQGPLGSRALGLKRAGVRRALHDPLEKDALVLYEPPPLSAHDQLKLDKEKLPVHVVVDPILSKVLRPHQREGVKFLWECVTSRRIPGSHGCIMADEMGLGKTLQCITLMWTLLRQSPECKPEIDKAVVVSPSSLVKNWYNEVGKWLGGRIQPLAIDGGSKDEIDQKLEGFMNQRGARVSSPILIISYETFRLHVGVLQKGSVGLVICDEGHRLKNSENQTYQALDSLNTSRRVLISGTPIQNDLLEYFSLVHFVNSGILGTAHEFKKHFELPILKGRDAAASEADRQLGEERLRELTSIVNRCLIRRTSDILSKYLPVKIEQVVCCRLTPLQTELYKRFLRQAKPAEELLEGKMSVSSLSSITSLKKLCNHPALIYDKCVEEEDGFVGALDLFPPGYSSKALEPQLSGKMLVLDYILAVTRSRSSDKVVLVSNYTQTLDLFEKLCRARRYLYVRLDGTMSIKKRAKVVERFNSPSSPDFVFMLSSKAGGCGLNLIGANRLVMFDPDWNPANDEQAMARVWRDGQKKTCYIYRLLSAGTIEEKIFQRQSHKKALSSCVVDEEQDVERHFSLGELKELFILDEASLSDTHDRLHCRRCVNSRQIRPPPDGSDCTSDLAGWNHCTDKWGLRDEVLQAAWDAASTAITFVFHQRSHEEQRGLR
Chain of Tyrosyl-DNA phosphodiesterase 2 (O95551 whole entry): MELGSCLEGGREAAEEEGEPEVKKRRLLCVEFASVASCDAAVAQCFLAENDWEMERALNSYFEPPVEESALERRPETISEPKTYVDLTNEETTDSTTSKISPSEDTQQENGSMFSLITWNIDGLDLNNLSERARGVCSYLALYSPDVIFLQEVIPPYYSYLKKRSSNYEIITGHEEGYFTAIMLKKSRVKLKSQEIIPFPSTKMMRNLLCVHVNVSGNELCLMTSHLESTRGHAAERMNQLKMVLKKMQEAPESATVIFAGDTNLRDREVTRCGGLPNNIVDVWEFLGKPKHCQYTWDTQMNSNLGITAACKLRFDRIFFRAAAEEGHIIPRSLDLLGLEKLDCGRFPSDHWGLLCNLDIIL

Structure (SMILES): COc1ccccc1N1C(C)=CC(=C(C#N)c2nc3ccccc3s2)C=C1C
- EC50 [1]: 16.1 µM (active)
- AC50 (INS1): 5.19 µM (active)
- IC50 [2]: 9.58 µM (active)
- IC50 [3]: 4.86 µM (active)

Structure (SMILES): CC1OC2CC(=O)OC2C2=C1C(=O)c1c(O)cccc1C2=O (stereo not given)
- EC50 [4]: 21 µM (inactive)
- IC50 [5]: 2.14 µM (active)
- IC50 [6]: 12 µM (inactive)
- IC50 (Beta Lactamase): 38.2 µM (inactive)

Structure (SMILES): CC(O)CC(=O)OC[C@]12CC[C@H]3[C@@](C)(CC[C@H]4C(C)(C)CCC[C@]34C)[C@@H]1CC(C1=CC(=O)OC1O)O2 (stereo not given in full)
- IC50 [7]: 3.53 µM (active)
- AC50 [8]: 3.75 µM (active)
- IC50 (Melanocortin receptor 4 [9]): 22 µM (inactive)
- IC50 [10]: > 64.6 µM (inactive)
- EC50 (Melanocortin receptor 4 [11]): > 89.2 µM (inactive)
- AC50 [12]: 22.1 µM (active)
- AC50 [13]: 5.5 µM (active)

Structure (SMILES): C/C=C/c1ccc([C@H]2[C@H](CO)N[C@H]2CN(CC(C)C)C(=O)c2ccccn2)cc1
- AC50 [14]: 5.62 µM (active)

Structure (SMILES): c1ccc2c(NCCc3c[nH]c4ccccc34)c3ccccc3nc2c1
- EC50 [15]: 11.9 µM (active)
- AC50 [16]: 3.17 µM (active)
- EC50 [17]: 4.86 µM (active)
- AC50 [18]: 1.41 µM (active)
- EC50 (cells [19]): > 350 µM (not active)
- EC50 [20]: 7.86 µM (active)
- EC50 [21]: > 120 µM (not active)
- EC50 [22]: 1.43 µM (active)
- EC50 (BJ [23]): 4.9 µM (active)
- EC50 (cells [24]): 29.3 µM (active)
- AC50 [25]: 33.1 µM (active)
- EC50 (BJ [26]): 8.56 µM (inconclusive)
- EC50 (BJ [27]): 6.42 µM (inconclusive)
- EC50 (H4): > 120 µM (not active)
